Data as given in article PMC4787783 (2015).
One block for each molecule: values may come before it.

Tests used:
[1] = system: tRNA-Cys fragment (RNA, G4) GGGGGUAUAGCUCAGUGGUAGAGCAUUUGA; assay: fluorescence enhancement
[2] = system: Tel22-mut (RNA, single strand) AGUGUUAGUGUUAGUGUUAGUG; assay: fluorescence enhancement; conditions: 40 mM K+; 20 mM Tris-HCl pH 7.0; 2 µM CyT, 4 µM RNA; very weak fluorescence
[3] = system: ssAf17 (RNA, single strand) CUGAGUUGUAUAUAUUCG; assay: fluorescence titration, 1:1 fit; conditions: 40 mM K+; 20 mM Tris-HCl pH 7.0, 25 °C; 2 µM CyT
[4] = system: NRAS-mut (RNA, single strand) GUGAGUUGCGUGUCUGUG; assay: fluorescence enhancement; conditions: 40 mM K+; 20 mM Tris-HCl pH 7.0; 2 µM CyT, 4 µM RNA; very weak fluorescence
[5] = system: HP18 (HP-18) (RNA, hairpin) CAGUACAGAUCUGUACUG; assay: fluorescence titration, 1:1 fit; conditions: 40 mM K+; 20 mM Tris-HCl pH 7.0, 25 °C; 2 µM CyT
[6] = system: Spinach (RNA, aptamer) GCAGCCGGCUUGUUGAGUAGAGUGUGAGCUCCGUAACUGGUCGCGUC/GACGCGACCGAAUGAAAUGGUGAAGGACGGGUCCAGCCGGCUGC; assay: fluorescence enhancement
[7] = system: 4-WJ (RNA, junction) GCGC/UUUAGC/GAGGUCCU/AGAA; assay: fluorescence enhancement; conditions: 40 mM K+; 20 mM Tris-HCl pH 7.0; 2 µM CyT, 4 µM RNA; very weak fluorescence
[8] = system: Tel22 (RNA, G4) AGGGUUAGGGUUAGGGUUAGGG; assay: fluorescence titration, 1:1 fit; conditions: 40 mM K+; 20 mM Tris-HCl pH 7.0, 25 °C; 2 µM CyT
[9] = system: BCL-2 (RNA, G4) AGGGGGCCGUGGGGUGGGAGCUGGGG; assay: fluorescence titration, 1:1 fit; conditions: 40 mM K+; 20 mM Tris-HCl pH 7.0, 25 °C; 2 µM CyT
[10] = system: tRNA-Ala fragment (RNA, G4) GGGGGUGUAGCUCAGUGGUAGAGCGCGUGC; assay: fluorescence enhancement
[11] = system: TRF2 (RNA, G4) CGGGAGGGCGGGGAGGGC; assay: fluorescence titration, 1:1 fit; conditions: 40 mM K+; 20 mM Tris-HCl pH 7.0, 25 °C; 2 µM CyT
[12] = system: VEGF (RNA, G4) GGAGGAGGGGGAGGAGGA; assay: fluorescence titration, 1:1 fit; conditions: 40 mM K+; 20 mM Tris-HCl pH 7.0, 25 °C; 2 µM CyT
[13] = system: ssAf22 (RNA, single strand) UGAGCUUAAUUGUAUAUAUUCG; assay: fluorescence titration, 1:1 fit; conditions: 40 mM K+; 20 mM Tris-HCl pH 7.0, 25 °C; 2 µM CyT
[14] = system: 3-WJ (RNA, junction) AGCGCAACCCC/UCGUCAGCU/GGGACGACGU; assay: fluorescence enhancement; conditions: 40 mM K+; 20 mM Tris-HCl pH 7.0; 2 µM CyT, 4 µM RNA; very weak fluorescence
[15] = system: dsNC (RNA, duplex) UUGUGCUACCAGGAGUCUG/CAGACUCCUGGUAGCACAA; assay: fluorescence titration, 1:1 fit; conditions: 40 mM K+; 20 mM Tris-HCl pH 7.0, 25 °C; 2 µM CyT
[16] = system: Bulges-TB1 (RNA, G4) UUGUGGUGGGUGGGUGGGU; assay: fluorescence enhancement
[17] = system: NRAS (RNA, G4) GGGAGGGGCGGGUCUGGG; assay: fluorescence titration, 1:1 fit; conditions: 40 mM K+; 20 mM Tris-HCl pH 7.0, 25 °C; 2 µM CyT
[18] = system: HP18 (HP-18) (RNA, hairpin) CAGUACAGAUCUGUACUG; assay: fluorescence enhancement; conditions: about 330-fold enhancement
[19] = system: Tel22 (RNA, G4) AGGGUUAGGGUUAGGGUUAGGG; assay: fluorescence enhancement; conditions: about 290-fold enhancement
[20] = system: ssAf17 (RNA, single strand) CUGAGUUGUAUAUAUUCG; assay: fluorescence enhancement; conditions: about 100-fold enhancement
[21] = system: VEGF (RNA, G4) GGAGGAGGGGGAGGAGGA; assay: fluorescence enhancement; conditions: about 200-fold enhancement

- binding ([1]; 40 mM K+, 20 mM Tris-HCl pH 7.0, 2 µM CyT, 4 µM RNA, about 205-fold enhancement): yes
- binding [2]: weak
- binding constant [3]: (4.40 ± 0.38) × 10^4 M^-1
- binding [4]: weak
- binding constant [5]: (2.89 ± 0.28) × 10^4 M^-1
- binding ([6]; 40 mM K+, 20 mM Tris-HCl pH 7.0, 2 µM CyT, 4 µM RNA, about 327-fold enhancement): yes
- binding [7]: weak
- binding constant [8]: (1.17 ± 0.37) × 10^5 M^-1
- binding constant [9]: (1.94 ± 0.29) × 10^5 M^-1
- binding ([10]; 40 mM K+, 20 mM Tris-HCl pH 7.0, 2 µM CyT, 4 µM RNA, about 200-fold enhancement): yes
- binding constant [11]: (2.81 ± 0.63) × 10^5 M^-1
- binding constant [12]: (1.44 ± 0.29) × 10^5 M^-1
- binding constant [13]: (4.03 ± 0.36) × 10^4 M^-1
- binding [14]: weak
- binding constant [15]: (2.42 ± 0.25) × 10^4 M^-1
- binding ([16]; 40 mM K+, 20 mM Tris-HCl pH 7.0, 2 µM CyT, 4 µM RNA, about 1800-fold enhancement): yes
- binding constant [17]: (3.49 ± 0.77) × 10^5 M^-1
SMILES: CC(=Cc1sc2ccc3ccccc3c2[n+]1CCCS(=O)(=O)[O-])C=C1Sc2ccc3ccccc3c2N1CCCS(=O)(=O)O

- binding [18]: yes
- binding ([1]; about 150-fold enhancement): yes
- binding [19]: yes
- binding ([6]; about 200-fold enhancement): yes
- binding [20]: yes
- binding ([10]; about 230-fold enhancement): yes
- binding [21]: yes
- binding ([16]; about 570-fold enhancement): yes
SMILES: CN1C(=Cc2cc[n+](C)c3ccccc23)Sc2ccccc21
